How the values were obtained:
Assay in all cases: MTT assay: in vitro inhibition of growth by deuterium oxide
Assay type in all cases: cell-based, human
[1] = system: A549 lung cancer cell line
Description: (§1) Studies of in vitro inhibition of growth of human tumor cells by deuterium oxide, by the MTT (3-(4,5-dimethylthiazol-2-yl)-2,5-diphenyltetrazolium bromide) assay
(§2) 1. A bottle of cells that had been cultured for 3 to 4 days and were in the exponential phase was taken, a suitable amount of 0.25% Trypsin-EDTA solution was added thereto to detach the cells from the wall, and the cells were suspended in 10 ml RPMI 1640 medium containing 10% FBS. 2. The cells were counted on a hemocytometer, and generally viable cells should be not less than 97%. 3. The cell suspension was diluted with a complete medium to prepare a suspension containing 1×10^4 cells/ml. 4. To each well of a 12-well culture plate, 300 μl cell suspension was added. The addition of cells should be finished within 4 hours. The plate was placed in an incubator at 37° C. and 5% CO2 for 24 hours. 5. Powdery RPMI Medium 1640 (Gibco, USA, Cat#: 31800-022) was dissolved in deuterium oxide (provided by Cambridge Isotope Laboratories, Inc. (US)) to prepare a cell culture medium (unless particularly specified, all culture media used in the Examples hereinafter were prepared from powdery RPMI Medium 1640 and deuterium oxide) at a concentration shown in Table 1, which was added into the cell culture plate. 6. The cell culture plate was incubated for 3 days in an incubator at 37° C., 5% CO2 and 100% humidity. 7. A solution of 1 mg/ml MTT was prepared in a serum-free RPMI1640 medium, added to the plate at 200 μl/well, and incubated at 37° C. for 4 hours, to allow MTT to be reduced to formazan. 8. The supernatant was removed by pipetting, 200 μl DMSO was added to dissolve formazan, and the solution was well mixed on a platform shaker. 9. Absorbance of each well was measured on an ELISA reader with a detection wavelength of 570 nm and a reference wavelength of 450 nm. 10. The assay was repeated one more time.
(§3) Calculation of results: Inhibition of growth of tumor cells by deuterium oxide was calculated using tumor cells treated with sodium chloride physiological solution as a control group. Inhibition of cell growth was plotted against amounts of deuterium oxide to obtain a dose response curve, from which the half maximal inhibitory concentration (IC50) of deuterium oxide was derived.
(§4) Inhibition of tumor cell growth (%)=(1−OD test/OD control)×100%

[2] = system: BGC-823 gastric cancer cell line
Description: as §1, §2, §3, §4

[3] = system: Caov-3 ovarian cancer cell line; conditions: expressed in v/v %
Description: as §1, §2, §3, §4

[4] = system: HeLa cervical cancer cell line
Description: as §1, §2, §3, §4

K562 leukemia cell line = system: K562 leukemia cell line
Description: as §1, §2, §3, §4

[5] = system: PANC-1 pancreatic cancer cell line
Description: as §1, §2, §3, §4

[6] = system: PC-3 prostate cancer cell line
Description: as §1, §2, §3, §4

[7] = system: SF767 brain cancer cell line
Description: as §1, §2, §3, §4

[8] = system: U2-OS osteosarcoma cell line
Description: as §1, §2, §3, §4

[2H]O[2H] [Deuterium oxide]
Inhibition of growth (%) ([1]; deuterium oxide 1.2% (v/v)): 7.71% | Inhibition of growth (%) ([1]; deuterium oxide 2.5% (v/v)): 17.64% | Inhibition of growth (%) ([1]; deuterium oxide 5% (v/v)): 18.05% | Inhibition of growth (%) ([1]; deuterium oxide 10% (v/v)): 18.88% | Inhibition of growth (%) ([1]; deuterium oxide 20% (v/v)): 16.19% | Inhibition of growth (%) ([1]; deuterium oxide 30% (v/v)): 27.71% | Inhibition of growth (%) ([1]; deuterium oxide 40% (v/v)): 39.37% | Inhibition of growth (%) ([1]; deuterium oxide 50% (v/v)): 42.67% | Inhibition of growth (%) ([1]; deuterium oxide 60% (v/v)): 55.42% | Inhibition of growth (%) ([1]; deuterium oxide 70% (v/v)): 70.88% | Inhibition of growth (%) ([1]; deuterium oxide 80% (v/v)): 92.34% | IC10 ([1]; expressed in v/v %): 1.52% | IC50 ([1]; expressed in v/v %): 55.32% | Inhibition of growth (%) ([2]; deuterium oxide 1.2% (v/v)): 2.74% | Inhibition of growth (%) ([2]; deuterium oxide 2.5% (v/v)): 2.15% | Inhibition of growth (%) ([2]; deuterium oxide 5% (v/v)): −4.23% | Inhibition of growth (%) ([2]; deuterium oxide 10% (v/v)): −3.60% | Inhibition of growth (%) ([2]; deuterium oxide 20% (v/v)): 9.09% | Inhibition of growth (%) ([2]; deuterium oxide 30% (v/v)): 12.32% | Inhibition of growth (%) ([2]; deuterium oxide 40% (v/v)): 7.50% | Inhibition of growth (%) ([2]; deuterium oxide 50% (v/v)): 15.99% | Inhibition of growth (%) ([2]; deuterium oxide 60% (v/v)): 37.83% | Inhibition of growth (%) ([2]; deuterium oxide 70% (v/v)): 61.90% | Inhibition of growth (%) ([2]; deuterium oxide 80% (v/v)): 74.57% | IC10 ([2]; expressed in v/v %): 26.92% | IC50 ([2]; expressed in v/v %): 96.68% | IC10 [3]: 11.51% | IC50 [3]: 46.83% | Inhibition of growth (%) ([4]; deuterium oxide 1.2% (v/v)): 12.11% | Inhibition of growth (%) ([4]; deuterium oxide 2.5% (v/v)): 14.44% | Inhibition of growth (%) ([4]; deuterium oxide 5% (v/v)): 16.25% | Inhibition of growth (%) ([4]; deuterium oxide 10% (v/v)): 28.87% | Inhibition of growth (%) ([4]; deuterium oxide 20% (v/v)): 36.12% | Inhibition of growth (%) ([4]; deuterium oxide 30% (v/v)): 45.41% | Inhibition of growth (%) ([4]; deuterium oxide 40% (v/v)): 58.26% | Inhibition of growth (%) ([4]; deuterium oxide 50% (v/v)): 65.63% | Inhibition of growth (%) ([4]; deuterium oxide 60% (v/v)): 73.32% | Inhibition of growth (%) ([4]; deuterium oxide 70% (v/v)): 85.82% | Inhibition of growth (%) ([4]; deuterium oxide 80% (v/v)): 90.11% | IC10 ([4]; expressed in v/v %): 1.8% | IC50 ([4]; expressed in v/v %): 68.33% | Inhibition of growth (%) (K562 leukemia cell line; deuterium oxide 1.2% (v/v)): −2.47% | Inhibition of growth (%) (K562 leukemia cell line; deuterium oxide 2.5% (v/v)): 6.51% | Inhibition of growth (%) (K562 leukemia cell line; deuterium oxide 5% (v/v)): 4.23% | Inhibition of growth (%) (K562 leukemia cell line; deuterium oxide 10% (v/v)): −7.60% | Inhibition of growth (%) (K562 leukemia cell line; deuterium oxide 20% (v/v)): 9.10% | Inhibition of growth (%) (K562 leukemia cell line; deuterium oxide 30% (v/v)): 22.72% | Inhibition of growth (%) (K562 leukemia cell line; deuterium oxide 40% (v/v)): 39.51% | Inhibition of growth (%) (K562 leukemia cell line; deuterium oxide 50% (v/v)): 55.51% | Inhibition of growth (%) (K562 leukemia cell line; deuterium oxide 60% (v/v)): 70.13% | Inhibition of growth (%) (K562 leukemia cell line; deuterium oxide 70% (v/v)): 88.59% | Inhibition of growth (%) (K562 leukemia cell line; deuterium oxide 80% (v/v)): 93.24% | IC10 (K562 leukemia cell line; expressed in v/v %): 14.83% | IC50 (K562 leukemia cell line; expressed in v/v %): 51.72% | Inhibition of growth (%) ([5]; deuterium oxide 1.2% (v/v)): 7.37% | Inhibition of growth (%) ([5]; deuterium oxide 2.5% (v/v)): 13.88% | Inhibition of growth (%) ([5]; deuterium oxide 5% (v/v)): 14.41% | Inhibition of growth (%) ([5]; deuterium oxide 10% (v/v)): 8.43% | Inhibition of growth (%) ([5]; deuterium oxide 20% (v/v)): 9.06% | Inhibition of growth (%) ([5]; deuterium oxide 30% (v/v)): 17.81% | Inhibition of growth (%) ([5]; deuterium oxide 40% (v/v)): 26.73% | Inhibition of growth (%) ([5]; deuterium oxide 50% (v/v)): 31.62% | Inhibition of growth (%) ([5]; deuterium oxide 60% (v/v)): 50.31% | Inhibition of growth (%) ([5]; deuterium oxide 70% (v/v)): 57.29% | Inhibition of growth (%) ([5]; deuterium oxide 80% (v/v)): 79.05% | IC10 ([5]; expressed in v/v %): 3.03% | IC50 ([5]; expressed in v/v %): 65.38% | Inhibition of growth (%) ([6]; deuterium oxide 1.2% (v/v)): 0.46% | Inhibition of growth (%) ([6]; deuterium oxide 2.5% (v/v)): 4.33% | Inhibition of growth (%) ([6]; deuterium oxide 5% (v/v)): −2.50% | Inhibition of growth (%) ([6]; deuterium oxide 10% (v/v)): 8.81% | Inhibition of growth (%) ([6]; deuterium oxide 20% (v/v)): −16.46% | Inhibition of growth (%) ([6]; deuterium oxide 30% (v/v)): 26.67% | Inhibition of growth (%) ([6]; deuterium oxide 40% (v/v)): 43.19% | Inhibition of growth (%) ([6]; deuterium oxide 50% (v/v)): 59.42% | Inhibition of growth (%) ([6]; deuterium oxide 60% (v/v)): 60.84% | Inhibition of growth (%) ([6]; deuterium oxide 70% (v/v)): 73.42% | Inhibition of growth (%) ([6]; deuterium oxide 80% (v/v)): 87.08% | IC10 ([6]; expressed in v/v %): 9.35% | IC50 ([6]; expressed in v/v %): 61.34% | Inhibition of growth (%) ([7]; deuterium oxide 1.2% (v/v)): 4.76% | Inhibition of growth (%) ([7]; deuterium oxide 2.5% (v/v)): 3.94% | Inhibition of growth (%) ([7]; deuterium oxide 5% (v/v)): −4.41% | Inhibition of growth (%) ([7]; deuterium oxide 10% (v/v)): −8.43% | Inhibition of growth (%) ([7]; deuterium oxide 20% (v/v)): 7.66% | Inhibition of growth (%) ([7]; deuterium oxide 30% (v/v)): 8.42% | Inhibition of growth (%) ([7]; deuterium oxide 40% (v/v)): 16.50% | Inhibition of growth (%) ([7]; deuterium oxide 50% (v/v)): 21.23% | Inhibition of growth (%) ([7]; deuterium oxide 70% (v/v)): 49.65% | Inhibition of growth (%) ([7]; deuterium oxide 80% (v/v)): 71.22% | IC10 ([7]; expressed in v/v %): 31.85% | IC50 ([7]; expressed in v/v %): 91.12% | Inhibition of growth (%) ([8]; deuterium oxide 1.2% (v/v)): −2.81% | Inhibition of growth (%) ([8]; deuterium oxide 2.5% (v/v)): 4.20% | Inhibition of growth (%) ([8]; deuterium oxide 5% (v/v)): −1.64% | Inhibition of growth (%) ([8]; deuterium oxide 10% (v/v)): −8.55% | Inhibition of growth (%) ([8]; deuterium oxide 20% (v/v)): −3.12% | Inhibition of growth (%) ([8]; deuterium oxide 30% (v/v)): 11.99% | Inhibition of growth (%) ([8]; deuterium oxide 40% (v/v)): 10.23% | Inhibition of growth (%) ([8]; deuterium oxide 50% (v/v)): 18.21% | Inhibition of growth (%) ([8]; deuterium oxide 60% (v/v)): 23.43% | Inhibition of growth (%) ([8]; deuterium oxide 70% (v/v)): 29.64% | Inhibition of growth (%) ([8]; deuterium oxide 80% (v/v)): 45.84% | IC10 ([8]; expressed in v/v %): 24.99% | IC50 ([8]; expressed in v/v %): 86.25%

Reference: patent US20170071976A1, “PHARMACEUTICAL SOLUTION HAVING ANTI-TUMOR EFFECT-ENHANCING AND TOXICITY-REDUCING EFFECT, AND PHARMACEUTICAL COMPOSITION COMPRISING SAME” (priority 2014, published 2017)
